Laboratory results reported in article PMC6407578, “Synthesis and biological evaluation of ursolic acid derivatives bearing triazole moieties as potential anti-Toxoplasma gondii agents” (Journal of Enzyme Inhibition and Medicinal Chemistry, 2019).
Where two headings read alike, the source gives them in different places.

Experiments:
HeLa cells = experiment: Cytotoxicity on HeLa host cells (MTT); type: cell-based; settings: median toxicity dose, cytotoxicity against host cells, 24 h
Method: (§1) The cytotoxicity of compounds was determined using the previously published thiazolyl blue-based colorimetric method. For this, HeLa cells were used as host cells and their ability to resist invasion by T. gondii RH strain tachyzoites in vitro was checked. The cells were plated in 96-well plates at an appropriate density to ensure exponential growth throughout the experimental period (3 × 10^3 cells per well) and then allowed to adhere for 24 h at 37 °C. The cells were infected with T. gondii (1.5 × 10^4 tachyzoites/well), followed by incubation for 24 h. All compounds were prepared in dimethyl sulfoxide (DMSO) at a stock concentration of 100 mM. Serial dilutions (1–1000 μM) of each compound were tested. Spiramycin was used as a positive control. After 24 h of incubation, 10 μL of MTT solution were added to each well and cells were incubated for a further 2 h. The optical density (OD) was read on a microplate reader at a wavelength of 492 nm. The IC50 in HeLa cells, IC50 in T. gondii and selectivity index were calculated using Microsoft Excel.

[1] = Liver/spleen indexes, serum ALT/AST, liver MDA/GSH in T. gondii-infected KM mice; type: in vivo; settings: 100 mg/kg; for spleen index: effect on the infection-induced increase, not statistically significant; for GSH content (liver homogenate): compared to the untreated group
Method: (§2) Thirty female KM mice were used to establish an animal model of acute T. gondii infection. These were randomly divided into five groups: infected untreated, normal, infected with spiramycin treatment, infected with 1e treatment and infected with 3d treatment. Each group consisted of six mice. Four hours after infection, 100 mg/kg of the compounds was administered to the mice by gavage, once a day for 4 consecutive days, whereas the untreated group was administered the same dose of physiological saline. On the fifth day, blood from the eyes of mice was collected and they were sacrificed by cervical dislocation. Their abdominal cavity was rinsed with sterile physiological saline to collect the parasites/tachyzoites. These were counted under the light microscope, and the inhibition rate of parasites was calculated. The liver and spleen were dissected and liver and spleen indexes, serum alanine aminotransferase (ALT), aspartate aminotransferase (AST), and liver homogenate glutathione (GSH) and malonaldehyde (MDA) were determined.

T. gondii tachyzoites = experiment: In vivo anti-T. gondii activity, acute infection model in KM mice (intraperitoneal tachyzoite count); set-up: species or system Toxoplasma gondii; settings: T. gondii-infected KM mice, 100 mg/kg by gavage once a day for 4 days; for inhibitory rate of tachyzoites: ascitic fluid; for Amount of tachyzoite: intraperitoneal tachyzoites
Method: as §2

[2] = test system: T. gondii RH strain tachyzoites; experiment: In vitro T. gondii growth inhibition in HeLa host cells (MTT); type: cell-based, Toxoplasma gondii; settings: for SI (selectivity index): IC50 in HeLa cells/IC50 in T. gondii; for IC50: median inhibitory concentration, tachyzoite inhibition, HeLa host cells, 24 h
Method: as §1

T. gondii = test system: T. gondii; set-up: method as in PMID 25288090; settings: cited from earlier work
[3] = T. gondii-infected KM mice, compared with the untreated group

Row | Compound | IC50 (HeLa cells; Homo sapiens, HeLa) [µM] | levels of MDA (liver homogenate) [1, 3] | spleen index ([1]; T. gondii-infected KM mice) | inhibitory rate of tachyzoites (T. gondii tachyzoites) [%] | Amount of tachyzoite (T. gondii tachyzoites) | SI (selectivity index) [2] | IC50 ([2]; Toxoplasma gondii) [µM] | melting point [°C] | other results
1 | C[C@H]1[C@H](C)CC[C@]2(C(=O)O)CC[C@]3(C)C(=CC[C@@H]4[C@@]5(C)CC[C@H](O)C(C)(C)[C@@H]5CC[C@]43C)[C@H]12 [Ursolic Acid, Ursolic acid] | 44.8 | significantly decreased | subjugated | 65.4 | 77.9 ×10^4 | 0.62 | 72.2 |  | serum ALT and AST levels ([1]; mouse, in vivo): striking reduction
2 | C[C@H]1[C@H](C)CC[C@]2(C(=O)O)CC[C@]3(C)C(=CC[C@@H]4[C@@]5(C)C/C(=C\c6cn(-c7ccccc7Cl)nn6)C(=O)C(C)(C)[C@@H]5CC[C@]43C)[C@H]12 [1e, (1S,2R,4aS,6aS,6bR,8aR,12aR,12bR,14bS,E)-11-((1–(2-chlorophenyl)-1H-1,2,3-triazol-4-yl)methylene)-1,2,6a,6b,9,9,12a-heptamethyl-10-oxo-1,3,4,5,6,6a,6b,7,8,8a,9,10,11,12,12a,12b,13,14b-octadecahydropicene-4a(2H)-carboxylic acid] | 466 |  |  | 37.0 | 141.8 ×10^4 | 1.95 | 240 |  | GSH content (liver homogenate) ([1]; T. gondii-infected KM mice): significantly increase; serum ALT and AST levels [1, 3]: striking reduction
3 | Spiramycin [reference compound] |  | significantly decreased | subjugated | 56.8 | 97.2 ×10^4 | 0.72 |  |  | IC50 (HeLa cells): 189 µM; IC50 [2]: 262 µM
4 | S=C1N=NC(c2cccs2)=N1 [compound 2, 3-(thiophen-2-yl)-1,2,4-triazole-5-thione] |  |  |  |  |  |  |  |  | selectivity value (T. gondii; 3[H]uracil incorporation method): 4.58; selectivity value (T. gondii; qRT-PCR): 5.21
5 | C[C@H]1[C@H](C)CC[C@]2(C(=O)OCCn3cnnc3-c3ccc([N+](=O)[O-])cc3)CC[C@]3(C)C(=CC[C@@H]4[C@@]5(C)CCC(O)C(C)(C)[C@@H]5CC[C@]43C)[C@H]12 (stereo partly drawn) [3d, 2 –(3-(4-nitrophenyl)-4H-1,2,4-triazol-4-yl)ethyl(1S,2R,4aS,6aS,6bR,8aR,12aR,12bR,14bS)-10-hydroxy-1,2,6a,6b,9,9,12a-heptamethyl-1,3,4,5,6,6a,6b,7,8,8a,9,10,11,12,12a,12b,13,14b-octadecahydropicene-4a(2H)-carboxylate] | 227 | significantly decreased | subjugated | 70.4 | 66.6 ×10^4 | 1.77 | 128 |  | GSH content (liver homogenate) ([1]; T. gondii-infected KM mice): significantly increase; serum ALT and AST levels [1, 3]: striking reduction
6 | C[C@H]1[C@H](C)CC[C@]2(C(=O)OCC(=O)NCc3cn(-c4ccc(Cl)cc4)nn3)CC[C@]3(C)C(=CC[C@@H]4[C@@]5(C)CCC(O)C(C)(C)[C@@H]5CC[C@]43C)[C@H]12 (stereo partly drawn) [2b, (1S,2R,4aS,6aS,6bR,8aR,12aR,12bR,14bS)-2-((1–(4-chlorophenyl)-1H-1,2,3-triazol-4-yl)methylamino)-2-oxoethyl-10-hydroxy-1,2,6a,6b,9,9,12a-heptamethyl-1,2,3,4,4a,5,6,6a,6b,7,8,8a,9,10,11,12,12a,12b,13,14b-icosahydropicene-4a-carboxylate] | 329 |  |  |  |  |  | > 1000 | 176 to 178 | 
7 | C[C@H]1[C@H](C)CC[C@]2(C(=O)O)CC[C@]3(C)C(=CC[C@@H]4[C@@]5(C)C/C(=C\c6cn(-c7cccc(F)c7)nn6)C(=O)C(C)(C)[C@@H]5CC[C@]43C)[C@H]12 [1c, (1S,2R,4aS,6aS,6bR,8aR,12aR,12bR,14bS,E)-11-((1–(3-fluorophenyl)-1H-1,2,3-triazol-4-yl)methylene)-1,2,6a,6b,9,9,12a-heptamethyl-10-oxo-1,3,4,5,6,6a,6b,7,8,8a,9,10,11,12,12a,12b,13,14b-octadecahydropicene-4a(2H)-carboxylic acid] | > 1000 |  |  |  |  |  | > 1000 | > 250 | 
8 | C[C@H]1[C@H](C)CC[C@]2(C(=O)O)CC[C@]3(C)C(=CC[C@@H]4[C@@]5(C)C/C(=C\c6cn(-c7ccc(F)cc7)nn6)C(=O)C(C)(C)[C@@H]5CC[C@]43C)[C@H]12 [1d, (1S,2R,4aS,6aS,6bR,8aR,12aR,12bR,14bS,E)-11-((1–(4-fluorophenyl)-1H-1,2,3-triazol-4-yl)methylene)-1,2,6a,6b,9,9,12a-heptamethyl-10-oxo-1,3,4,5,6,6a,6b,7,8,8a,9,10,11,12,12a,12b,13,14b-octadecahydropicene-4a(2H)-carboxylic acid] | > 1000 |  |  |  |  |  | > 1000 | > 250 | 
9 | C[C@H]1[C@H](C)CC[C@]2(C(=O)OCCn3cnnc3-c3ccc(Cl)cc3)CC[C@]3(C)C(=CC[C@@H]4[C@@]5(C)CCC(O)C(C)(C)[C@@H]5CC[C@]43C)[C@H]12 (stereo partly drawn) [3b, 2 –(3-(4-chlorophenyl)-4H-1,2,4-triazol-4-yl)ethyl(1S,2R,4aS,6aS,6bR,8aR,12aR,12bR,14bS)-10-hydroxy-1,2,6a,6b,9,9,12a-heptamethyl-1,3,4,5,6,6a,6b,7,8,8a,9,10,11,12,12a,12b,13,14b-octadecahydropicene-4a(2H)-carboxylate] | 2.4 |  |  |  |  | 0.36 | 6.7 | 245 to 246 | 
